Activity calls are given as the source filed them. The rule behind the calls is not given here.
Columns and labels:
[1] = Cmax in mouse at 5.5 mg/kg, ip by HPLC/MS/MS analysis; assay type: ADME, organism-based; conditions: in vivo
[2] = AUC (0 to infinity) in mouse at 5.5 mg/kg, ip by HPLC/MS/MS analysis; assay type: ADME, organism-based; conditions: in vivo
[3] = Half life in mouse at 5.5 mg/kg, ip by HPLC/MS/MS analysis; assay type: ADME, organism-based; conditions: in vivo
NCI-H1417 = experiment: Cell growth inhibition of human NCI-H1417 cells measured for 4 days; assay type: functional, cell-based; conditions: time 4.0 day
NCI-H526 [4] = experiment: Effect on cell cycle in human NCI-H526 cells assessed as cell accumulation at […] phase upto 1000 nM measured for 7 to 14 days by flow cytometry; assay type: functional, cell-based; conditions: time 7-14 day
[5] = Effect on cleaved PARP level in human NCI-H1417 cells assessed as relative expression at 100 nM measured after 14 days by Western blot analysis (reference value: 0.38); assay type: functional; conditions: time 14 day
[6] = Effect on cleaved PARP level in human NCI-H1417 cells assessed as fold change at 1000 nM measured after 7 days by Western blot analysis (reference value: 1.00); assay type: functional; conditions: time 7 day
[7] = Effect on cleaved PARP level in human NCI-H1417 cells assessed as fold change at 10 nM measured after 10 days by Western blot analysis (reference value: 1.00); assay type: functional; conditions: time 10 day
[8] = Effect on cleaved PARP level in human NCI-H526 cells assessed as relative expression at 10 nM measured after 7 days by Western blot analysis (reference value: 0.57); assay type: functional; conditions: time 7 day
[9] = Effect on cleaved PARP level in human NCI-H526 cells assessed as relative expression at 100 nM measured after 7 days by Western blot analysis (reference value: 0.57); assay type: functional; conditions: time 7 day
[10] = Effect on cleaved PARP level in human COLO-668 cells assessed as relative expression at 1000 nM measured after 10 days by Western blot analysis (reference value: 1.07); assay type: functional; conditions: time 10 day
[11] = Effect on cleaved PARP level in human COLO-668 cells assessed as relative expression at 10 nM measured after 14 days by Western blot analysis (reference value: 3.50); assay type: functional; conditions: time 14 day
[12] = Effect on cleaved PARP level in human NCI-H1694 cells assessed as relative expression at 10 nM measured after 14 days by Western blot analysis (reference value: 0.25); assay type: functional; conditions: time 14 day
[13] = Effect on cleaved PARP level in human NCI-H1694 cells assessed as fold change at 1000 nM measured after 7 days by Western blot analysis (reference value: 1.00); assay type: functional; conditions: time 7 day
[14] = Effect on cleaved PARP level in human NCI-H69 cells assessed as relative expression at 1000 nM measured after 7 days by Western blot analysis (reference value: 0.02); assay type: functional; conditions: time 7 day
[15] = Effect on cleaved PARP level in human NCI-H69 cells assessed as relative expression at 1000 nM measured after 10 days by Western blot analysis (reference value: 0.03); assay type: functional; conditions: time 10 day
[16] = Effect on cleaved PARP level in human NCI-H510 cells assessed as fold change at 100 nM measured after 7 days by Western blot analysis (reference value: 1.00); assay type: functional, NCI-H510A; conditions: time 7 day
[17] = Effect on cleaved PARP level in human NCI-H510 cells assessed as fold change at 1000 nM measured after 10 days by Western blot analysis (reference value: 1.00); assay type: functional, NCI-H510A; conditions: time 10 day
[18] = Effect on cleaved PARP level in human NCI-H889 cells assessed as relative expression at 10 nM measured after 10 days by Western blot analysis (reference value: 0.33); assay type: functional; conditions: time 10 day
[19] = Effect on cleaved PARP level in human NCI-H889 cells assessed as fold change at 10 nM measured after 14 days by Western blot analysis (reference value: 1.00); assay type: functional; conditions: time 14 day
[20] = Effect on cleaved PARP level in human NCI-H2171 cells assessed as relative expression at 1000 nM measured after 14 days by Western blot analysis (reference value: 0.01); assay type: functional; conditions: time 14 day
[21] = Effect on cleaved PARP level in human NCI-H2171 cells assessed as fold change at 10 nM measured after 7 days by Western blot analysis (reference value: 1.00); assay type: functional; conditions: time 7 day
[22] = Effect on cleaved PARP level in human NCI-H2171 cells assessed as fold change at 1000 nM measured after 10 days by Western blot analysis (reference value: 1.00); assay type: functional; conditions: time 10 day
[23] = Effect on cleaved PARP level in human NCI-H2171 cells assessed as fold change at 10 nM measured after 14 days by Western blot analysis (reference value: 1.00); assay type: functional; conditions: time 14 day
[24] = Effect on cleaved PARP level in human NCI-H2171 cells assessed as fold change at 100 nM measured after 14 days by Western blot analysis (reference value: 1.00); assay type: functional; conditions: time 14 day
[25] = Effect on cleaved PARP level in human NCI-H146 cells assessed as fold change at 100 nM measured after 7 days by Western blot analysis (reference value: 1.00); assay type: functional; conditions: time 7 day
[26] = Effect on cleaved PARP level in human NCI-H146 cells assessed as fold change at 100 nM measured after 14 days by Western blot analysis (reference value: 1.00); assay type: functional; conditions: time 14 day
[27] = Toxicity in rat assessed as neutrophenia measured for 28 days; conditions: in vivo, 672 h, time 28 day
[28] = Toxicity in rat assessed as multifocal hemorrhage in organs measured for 28 days; conditions: in vivo, 672 h, time 28 day
[29] = Toxicity in rat assessed as morbidity measured for 28 days; conditions: in vivo, 672 h, time 28 day
[30] = Toxicity in dog assessed as suppression of platelet in bone marrow measured for 28 days; assay type: cell-based, Canis lupus familiaris; conditions: 672 h, time 28 day
NCI-H526 [31] = experiment: Antitumor activity against human NCI-H526 cells xenografted in nude mouse assessed as mean tumor volume at 1.5 mg/kg, po administered daily measured twice weekly (reference value: 2359 +/- 247 mm3); assay type: functional
NCI-H69 = experiment: Antitumor activity against human NCI-H69 cells xenografted in nude mouse assessed as tumor growth inhibition at 0.5 mg/kg, po administered daily measured twice weekly relative to control; assay type: functional; conditions: read-out: TGI
COLO-668 = experiment: Effect on NSE gene expression in human COLO-668 cells at 1 uM measured after 4 to 7 days by qRT-PCR analysis; assay type: functional, cell-based; conditions: time 4-7 day
NCI-H146 = experiment: Effect on NCAM gene expression in human NCI-H146 cells at 1 uM measured after 4 days by qRT-PCR analysis; assay type: functional, cell-based; conditions: time 4.0 day
SHP77 = experiment: Effect on SYP gene expression in human SHP77 cells at 1 uM measured after 4 days by qRT-PCR analysis; assay type: functional, cell-based; conditions: time 4.0 day
NCI-H526 [32] = experiment: In vivo inhibition of LSD1 in human NCI-H526 cells xenografted in nude mouse assessed as change in ODZ2 gene expression measured after 24 hrs post single administration by qRT-PCR analysis; assay type: functional, organism-based; conditions: dose 0.06-135 mg/kg
NCI-H526 [33] = experiment: In vivo inhibition of LSD1 in human NCI-H526 cells xenografted in nude mouse assessed as change in LIX1L gene expression administrated daily for 5 days by qRT-PCR analysis; assay type: functional, organism-based; conditions: dose 0.02-135 mg/kg, time 5.0 day

With `c1ccc([C@@H]2C[C@H]2NC2CCNCC2)cc1` as the compound, how does the Cmax [1] read?
The Cmax was 466 ng/mL.

What about the AUC(0-inf) [2] of the same compound?
The AUC(0-inf) was 938 ng·h/mL.

What about the half-life [3] of the same compound?
Its half-life is 3.6 h.

Which “growth inhibition (GI)” value (NCI-H1417) does the source give for `O=C(O)c1ccc(CN2CCC(CN[C@@H]3C[C@H]3c3ccccc3)CC2)cc1` [GSK2879552] here?
The value was “inactive”.

And the Activity (NCI-H526 [4])?
The Activity was “inactive”.

And the Activity [5]?
Its Activity is 0.32.

What about the “fold change (FC)” value [6] of the same compound?
The value was 3.48.

What about the “fold change (FC)” value [7] of the same compound?
Its value is 1.44.

What about the Activity [8] of the same compound?
Its Activity is 0.48.

What about the Activity [9] of the same compound?
The Activity was 0.68.

And the Activity [10]?
The Activity was 0.63.

What about the Activity [11] of the same compound?
Its Activity is 1.45.

What about the Activity [12] of the same compound?
The Activity was 0.22.

And the “fold change (FC)” value [13]?
The value was 1.44.

And the Activity [14]?
Its Activity is 0.04.

What about the Activity [15] of the same compound?
The Activity was 0.09.

What about the “fold change (FC)” value [16] of the same compound?
The value was 1.84.

What about the “fold change (FC)” value [17] of the same compound?
Its value is 12.67.

And the Activity [18]?
The Activity was 0.55.

And the “fold change (FC)” value [19]?
Its value is 1.84.

What about the Activity [20] of the same compound?
Its Activity is 0.02.

What about the “fold change (FC)” value [21] of the same compound?
The value was 1.53.

And the “fold change (FC)” value [22]?
The value was 1.33.

And the “fold change (FC)” value [23]?
The value was 0.9.

And the “fold change (FC)” value [24]?
The value was 1.8.

And the “fold change (FC)” value [25]?
The value was 1.02.

And the “fold change (FC)” value [26]?
Its value is 0.45.

And the Activity [27]?
Its Activity is “Toxic”.

And the Activity [28]?
Its Activity is “Toxic”.

What about the Activity [29] of the same compound?
The Activity was “Toxic”.

And the Activity [30]?
Its Activity is “Toxic”.

And the Activity (NCI-H526 [31])?
The Activity was 1113 mm3.

And the inhibition in vivo at 0.5 mg/kg (NCI-H69)?
Its inhibition in vivo at 0.5 mg/kg is 51%.

What about the Activity (COLO-668) of the same compound?
Its Activity is “inactive”.

And the Activity (NCI-H146)?
The Activity was “inactive”.

What about the Activity (SHP77) of the same compound?
Its Activity is “inactive”.

What about the inhibition (NCI-H526 [32]) of the same compound?
The inhibition was “Dose-Dependent Effect”.

And the inhibition (NCI-H526 [33])?
The inhibition was “Dose-Dependent Effect”.
